Key:
Set-up in all cases: species or system AML cell lines (8); Primary HTS, single concentration about 10 uM, Cell Titer Glo viability; log10 luminescence, per cent inhibition relative to cycloheximide control
Conditions in all cases: 72 h, relative to cycloheximide control, log10 luminescence; inhibitor
[1] = test system: CMK
[2] = test system: U937
[3] = test system: CHRF288-11
[4] = test system: MOLM-13
[5] = test system: MV4-11
[6] = test system: CMS
[7] = test system: ML-2
[8] = test system: M07e

SMILES	CMK %inh [1] [%]	U937 %inh [2] [%]	CHRF288-11 %inh [3] [%]	MOLM-13 %inh [4] [%]	MV4-11 %inh [5] [%]	CMS %inh [6] [%]	ML-2 %inh [7] [%]	M07e %inh [8] [%]
COc1cc(Nc2ncc3c(C)nc(-c4cccc(Oc5ccccc5)c4)n3n2)cc(OC)c1OC [SJ000573063-1, U19891/44/1]	25.77	10.08	8.926	53.84	46.32	22.07	2.68	11.27
CCN1CCC(CC(=O)Nc2n[nH]c3nnc(-c4cccc(F)c4F)cc23)CC1 [SJ000573064-1, VB101259-076A3]	96.65	13.36	30.8	13.03	39.53	104.4	6.747	13.75
Cn1cc(C=C2C(=O)Nc3cccnc32)c2ccccc21 [SJ000573065-1, U14362/24/1 | GW-441756 | GW441756]	2.086	-3.233	-4.894	21.32	36.15	-3.947	-1.442	-6.294
NCc1ccc(-n2c(-c3nonc3N)nc3cnccc32)cc1 [SJ000573066-1, CP100101-172A1]	18.18	21.07	11.55	27.71	62.53	11.21	11.91	5.233
O=C(Nc1n[nH]c2cc(-c3ccccc3)ccc12)C1CC1 [SJ000573067-1, VB100064-117A1]	85.27	46.5	40.96	40.31	0.9726	3.176	19.77	17.84
Cc1cc(O)cc(C)c1/C=C/c1cncc(C(N)=O)c1 [SJ000573068-1, U11805/173/2]	90.65	80.88	44.74	75.99	70.37	51.62	51.45	72.97
CNC(=O)c1cncc(/C=C/c2ccccc2C)c1 [SJ000573069-1, U12068/59/1]	-3.696	-1.047	-2.201	-1.542	-0.4269	0.1448	-0.01519	4.224
CNC(=O)c1cncc(/C=C/c2ccccc2Cl)c1 [SJ000573070-1, U12068/61/1]	93.63	0.1459	33.2	4.101	-1.892	-0.2342	26.34	31.9
CS(=O)(=O)CCNCc1nc(-c2ccc3ncnc(Nc4ccc(OCc5cccc(C(F)(F)F)c5)cc4)c3c2)cs1 [SJ000573071-1, U14859/60/2]	3.287	0.6329	-1.328	70.81	64.74	1.221	1.048	1.42
c1ccc(Nc2ncc(-c3ccccc3)o2)cc1 [SJ000573072-1, U13103/99/1]	6.254	3.569	2.769	84.62	59.12	-0.2616	3.842	-2.471
COc1ccc(-c2nn3ncccc3c2-c2ccnc(Nc3ccc(Cl)c(C(F)(F)F)c3)n2)cc1 [SJ000573073-1, U17838/183/2]	3.073	0.7639	1.294	-0.8658	3.163	0.1387	-1.529	-2.862
CN1CCC(C(=O)Nc2n[nH]c3nnc(-c4ccccc4)cc23)CC1 [SJ000573074-1, JW48822-132A0]	70.18	1.724	65.15	8.108	34.03	83.36	3.693	2.861
C#Cc1cccc(Nc2ncnc3ccc(OCCCCNCCS(C)(=O)=O)cc23)c1 [SJ000573075-1, U14819/194/1]	9.032	-0.213	4.443	9.087	-0.7985	3.196	4.028	-0.9936
O=C1Nc2ccc(C(=O)c3ccco3)cc2C1=Cc1cc(Cl)c(O)c(Cl)c1 [SJ000573076-1, U12068/71/3]	-2.763	-1.189	1.037	0.2179	1.256	3.176	3.323	2.097
Cc1ccc2c(-c3ccnc(Nc4ccccc4)n3)c(-c3ccc(F)cc3)nn2n1 [SJ000573077-1, U18020/155/1]	0.5232	0.3541	5.564	-1.366	-0.5842	18.56	0.6284	7.072
COc1ccc(-c2nn3ncccc3c2-c2ccnc(Nc3ccc4c(c3)OCCO4)n2)cc1 [SJ000573078-1, U17838/181/2]	-0.1559	3.638	4.025	3.964	-0.1391	4.836	1.307	5.255
COc1ccc(-c2nn3ncccc3c2-c2ccnc(Nc3cccc(C(F)(F)F)c3)n2)cc1 [SJ000573079-1, U17838/180/3]	4.001	2.119	5.707	3.38	8.211	13.73	-0.6403	14.72
FC(F)(F)c1cccc(-c2nn3ncccc3c2-c2ccnc(Nc3ccc4c(c3)OCCO4)n2)c1 [SJ000573080-1, U18020/138/1]	6.614	3.041	0.7655	3.832	2.308	2.426	2.472	-0.1766
Fc1ccc(-c2nn3ncccc3c2-c2ccnc(Nc3ccc4c(c3)OCCO4)n2)cc1 [SJ000573081-1, U18020/136/2]	3.915	35.33	0.4339	1.143	14.42	13.71	-1.741	1.748
